System: lung cancer cell line NCI-H460
Experiment: inhibition of cell proliferation
Assay type: cell-based
Conditions: Homo sapiens
Method: In order to evaluate the potential of HA nanocapsules encapsulating cytostatic docetaxel molecule to inhibit cell proliferation of lung cancer cell line NCI-H460, HA nanocapsules were prepared using hexadecyltrimethylammonium bromide (1.8 mg) according to the procedure described in Example 6. The results in FIG. 7 show the greatest ability to inhibit the proliferation of nanocapsules encapsulating docetaxel compared to the free molecule when systems are brought into contact for 2 to 48 h with the cancer cells. Moreover, one can see the safety of the systems without docetaxel. IC50 values, the concentration which produces 50% mortality of the population, was calculated using Graph Pad Prism 2.1 (Graph Pad Software).
In order to evaluate the potential of Pasn nanocapsules encapsulating docetaxel to inhibit cell proliferation of lung cancer cell line NCI-H460, PAsn nanocapsules were prepared using hexadecyltrimethylammonium bromide (1.8 mg) according to the procedure described in Example 12. The results in FIG. 11 show the greatest ability to inhibit the proliferation of nanocapsules encapsulating docetaxel compared to the free molecule when systems are brought into contact for 2 to 48 h with the cancer cells. Moreover, one can see the safety of the systems without docetaxel. IC50 values were calculated using Graph Pad Prism 2.1 (Graph Pad Software).

Q: For `CC(=O)O[C@@]12CO[C@@H]1C[C@H](O)[C@@]1(C)C(=O)[C@H](O)C3=C(C)[C@@H](OC(=O)[C@H](O)[C@@H](NC(=O)OC(C)(C)C)c4ccccc4)C[C@@](O)([C@@H](OC(=O)c4ccccc4)[C@H]21)C3(C)C` [docetaxel], which IC50 (NCI-H460, in contact with the cells for 2 h) is on record?
A: Its IC50 is 105 nM.

Q: What about the IC50 (NCI-H460, in contact with the cells for 48 h) of the same compound?
A: Its IC50 is 36 nM.

Reference: patent publication US9415019B2, “Nanocapsules with a polymer shell” (Universidade de Santiago de Compostela, priority 2011, dated 2016)
